Measured values reported in USRE40901E1, “Taxane derivatives and processes for the preparation thereof” (Indena S.p.A., priority 1999, dated 2009).

How the values were obtained:
[1] = test system: cancerous cells of breast, lung, ovary, colon, prostate, kidney, pancreas; experiment: cytotoxic and anticancer activity against cancerous cells; format: cell-based; details: statement in words, no data
[2] = test system: cell lines expressing the MDR phenotype; experiment: overcoming resistance of MDR cell lines; format: cell-based; details: statement in words, no data

CC(=O)O[C@H]1C(=O)[C@@]2(C)C([C@H](OC(=O)c3ccccc3)[C@]34OC(=O)O[C@H]3[C@H](OC(=O)[C@H](O)[C@H](CC(C)C)NC(=O)OC(C)(C)C)C(C)=C1C4(C)C)[C@]1(OC(C)=O)CO[C@@H]1C[C@H]2O (stereo partly drawn) [Compound (I), 13-(N-Boc-β-isobutylserinyl)-14β-hydroxybaccatine V, 1,14 carbonate]
cytotoxic and anticancer activities [1]: remarkable cytotoxic and anticancer activities
overcoming the resistance of cell lines expressing the MDR phenotype [2]: capable of overcoming the resistance
